Experimental data taken from patent US20230107538A1, “CYCLOALKYL-CONTAINING CARBOXYLIC ACIDS AND USES THEREOF” (LIMINAL BIOSCIENCES LIMITED, priority 2019, published 2023).

Experiments:
Assay type in all cases: cell-based
human GPR120 = target: T1, human GPR120 (Homo sapiens, UniProt Q5NUL3); assay: GPR120 β-arrestin 2 recruitment BRET, agonist mode; settings: HEK293 cells, read-out: GPR120 (agonist mode) EC50 β-arr2
T1 sequence (Q5NUL3 1-361): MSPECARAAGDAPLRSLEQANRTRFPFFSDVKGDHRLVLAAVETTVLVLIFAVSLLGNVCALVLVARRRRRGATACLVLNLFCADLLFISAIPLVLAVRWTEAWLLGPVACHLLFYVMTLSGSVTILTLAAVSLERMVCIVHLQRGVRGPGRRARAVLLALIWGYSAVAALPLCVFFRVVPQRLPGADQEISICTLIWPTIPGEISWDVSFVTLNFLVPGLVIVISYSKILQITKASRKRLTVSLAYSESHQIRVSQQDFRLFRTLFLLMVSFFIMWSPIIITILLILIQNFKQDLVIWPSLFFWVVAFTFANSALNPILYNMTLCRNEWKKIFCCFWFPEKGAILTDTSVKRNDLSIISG
Source text: (§1) Plasmids: The cDNA clones for human GPR40 and GPR84 receptors, human β-arrestin 2, Gαi2, Gβ1, and Gγ2 were obtained from the cDNA Resource Center (www.cdna.org). A plasmid encoding the human GPR120-L (long isoform) cDNA was obtained from R&D Systems. GPR120-S (short isoform) was generated by replacing the BglII-BsgI fragment from GPR120-L by a gBlock gene fragment (Integrated DNA Technologies, IA) lacking the DNA sequence corresponding to the extra 16 amino acids found in the third intracellular loop of the long form. GFP10 (F64L, S147P, S202F and H231L variant of Aequorea victoria GFP) gBlocks gene fragments (Integrated DNA Technologies) and linker were inserted in frame at the N-terminus of human Gγ2, or at the C-terminus of GPR40 and GPR120. Rluc8 (A55T, C124A, S130A, K136R, A143M, M185V, M253L, and S287L variant of the Renilla luciferase) gBlocks gene fragment (Integrated DNA Technologies) was inserted with linkers in between residues 91 and 92 of Gα2 or at the N-terminus of β-arrestin 2.
(§2) BRET measurements: a Gαi bioluminescence resonance energy transfer (BRET) biosensor was used to directly monitor GPR84-mediated activation of Gαi. The Gαi biosensor consists of a Rluc8-tagged Gαi2 subunit, a GFP10-tagged Gγ2 subunit, and an untagged Gβ1. Agonist stimulation and ensuing GPR84 activation triggers a physical separation between the RLuc8-Gαi donor and the GFP10-Gγ2 acceptor, resulting in a decrease in BRET signal whose amplitude is correlated to ligand efficacy. A BRET-based assay that allows the monitoring of Rluc8-tagged β-arrestin 2 recruitment to GFP10-tagged GPR40 or GFP10-tagged GPR120 was used to assess GPR40 or GPR120 activation. Transiently transfected HEK293 cells were seeded in 96-well white clear bottom Costar microplates (Fisher Scientific) coated with poly-D-lysine (Sigma-Aldrich) and left in culture for 24 hours. Cells were washed once with Tyrode's buffer (140 mmol/L NaCl, 1 mmol/L CaCl2, 2.7 mmol/L KCl, 0.49 mmol/L MgCl2, 0.37 mmol/L NaH2PO4, 5.6 mmol/L glucose, 12 mmol/L NaHCO3, and 25 mmol/L HEPES, pH 7.5) and the Rluc8 substrate coelenterazine 400A (Prolume, Lakeside, Ariz.) added at a final concentration of 5 μmol/L in Tyrode's buffer. Ligands were incubated with cells at room temperature for 5 minutes (G protein) or 25 minutes (β-arrestin) before reading BRET signal. In GPR84 antagonist mode, cells were treated with 125 μmol/L of the GPR84 agonist sodium decanoate in combination with test compounds. BRET readings were collected using an Infinite M1000 microplate reader (Tecan, Morrisville, N.C.). BRET^2 readings between Rluc8 and GFP10 were collected by sequential integration of the signals detected in the 370 to 450 nm (Rluc8) and 510 to 540 nm (GFP10) windows. The BRET signal was calculated as the ratio of light emitted by acceptor (GFP10) over the light emitted by donor (Rluc8). The values were corrected to net BRET by subtracting the background BRET signal obtained in cells transfected with Rluc8 constructs alone. Ligand-promoted net BRET values were calculated by subtracting vehicle-induced net BRET from ligand-induced net BRET.

human GPR84 [1] = target: T2, human GPR84 (Homo sapiens, UniProt Q9NQS5); assay: GPR84 Gαi BRET biosensor, antagonist mode (125 μmol/L sodium decanoate); settings: HEK293 cells, with 125 μmol/L sodium decanoate
T2 construct: host or cells: HEK293 (transient)
Source text: as §1, §2

human GPR40 = target: T3, human GPR40 (Homo sapiens, UniProt O14842); assay: GPR40 β-arrestin 2 recruitment BRET, agonist mode; settings: HEK293 cells, read-out: GPR40 (agonist mode) EC50 β-arr2
T3 construct: host or cells: HEK293 (transient)
Source text: as §1, §2

human GPR84 [2] = target: T2, human GPR84; assay: GPR84 Gαi BRET biosensor, agonist activity; settings: HEK293 cells
Source text: as §1, §2

T2 sequence (Q9NQS5 whole entry): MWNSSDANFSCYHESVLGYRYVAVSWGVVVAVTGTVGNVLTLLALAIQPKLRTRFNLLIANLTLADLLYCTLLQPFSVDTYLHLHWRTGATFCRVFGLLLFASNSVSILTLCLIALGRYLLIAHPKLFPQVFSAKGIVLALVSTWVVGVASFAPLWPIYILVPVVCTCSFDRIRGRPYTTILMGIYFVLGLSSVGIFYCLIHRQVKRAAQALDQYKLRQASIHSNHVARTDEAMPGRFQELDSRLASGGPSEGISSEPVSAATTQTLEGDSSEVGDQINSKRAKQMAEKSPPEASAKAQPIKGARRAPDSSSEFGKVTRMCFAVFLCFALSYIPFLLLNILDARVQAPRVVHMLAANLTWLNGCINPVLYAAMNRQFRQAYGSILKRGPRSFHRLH
T3 sequence (O14842 whole entry): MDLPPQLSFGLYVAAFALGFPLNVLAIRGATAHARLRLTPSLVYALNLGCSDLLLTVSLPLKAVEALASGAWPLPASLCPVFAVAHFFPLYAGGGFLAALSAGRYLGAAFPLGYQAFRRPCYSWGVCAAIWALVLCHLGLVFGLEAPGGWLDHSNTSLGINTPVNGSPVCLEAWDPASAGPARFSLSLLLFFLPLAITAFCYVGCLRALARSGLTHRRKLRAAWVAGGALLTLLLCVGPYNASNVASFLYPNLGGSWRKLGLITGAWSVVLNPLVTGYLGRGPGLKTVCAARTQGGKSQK

EC50 (human GPR120) [µM]	IC50 (human GPR84 [1]) [µM]	EC50 (human GPR40) [µM]	EC50 (human GPR84 [2]) [µM]	SMILES
245	115	164		CCCCCCCCC1(C(=O)O)CC1
272		170	< 16	CCCCCCC1CC1CC(=O)O (stereo not shown)
22	22	21		CCCC[C@H]1CC[C@H](CCC(=O)O)CC1
377	56	12		CCCCC[C@H]1CCC[C@@H](CC(=O)O)C1
> 500		321	36.9	CCCCCCC1CC1C(=O)C(=O)O (stereo not shown)
383	117	126		CCCCCCC1C(CC(=O)O)C1(F)F (stereo not shown)
45	20	16		CCCCCC1C(CCC(=O)O)C1(Br)Br (stereo not shown)
> 63	> 63	27		CCCCCC1C(CCC(=O)O)C1(C)C (stereo not shown)
299		149	23	[2H]C1([2H])C(CCCCCCC)C1CC(=O)[O-].[Na+] (stereo not shown)
> 500		133	79	CCCCCC1C(CCC(=O)O)C1(F)F (stereo not shown)
77		11	5	CC1(C)CC1CCCCCCCC(=O)O (stereo not shown)
≥ 500	> 500	122		CCCCCCCC1(CC(=O)O)CC1
> 500		> 500	114	CCCCCCC1OC1CC(=O)O (stereo not shown)
61		22	6	CC1(C)CC1CCCCC/C=C/C(=O)O (stereo not shown)
> 250		49	13	CCCCCCCC1CC1C(=O)O (stereo not shown)
35		14.3		CC1(C)CC1CCCCCC1CC1C(=O)O (stereo not shown)
> 500		87	35	CCCCCC1CC(CC(=O)O)C1 (stereo not shown)
88		70	< 16	CCCCCC1CC(=CC(=O)O)C1 (stereo not shown)
> 500	131	252		CCCCCC=C1CC(C(=O)O)C1 (stereo not shown)
382		63.4	73	CCCCCCC1CC(C(=O)O)C1 (stereo not shown)
307	180	211		CCCCCC1CC/C1=C/C(=O)O (stereo not shown)
> 500	173	83		CCCCCC1CCC1CC(=O)O (stereo not shown)
> 31	9	10		CCCCCCC1C(CCC(=O)O)C1(C)C (stereo not shown)
90	49	15		CCCCCC1CC(CC(=O)O)C1(C)C (stereo not shown)
> 63	> 63	21		CCCCCCCC1(CC(=O)O)CCC1
> 125	56	30		CCCCCCC1C(CC(=O)O)C1(C)C (stereo not shown) [drawing 299]
> 63		> 63		CCCCCCC1C(CC(=O)O)C1(C)C (stereo not shown) [drawing 302]
> 500	468	174		CCCCCCC1C(CC(=O)O)C1(C)C (stereo not shown) [drawing 311]
